Experimental data from ChEMBL document CHEMBL3301555, “MMV Malaria Box screening in pLDH viability assay against Plasmodium falciparum gametocytes”.

Legend:
Plasmodium falciparum [1] = experiment: (§1) MMV: Measure of pLDH activity as indication of parasite viability. Gametocytogenesis of 3D7 Plasmodium falciparum strain was induced in vitro and asexual parasites were depleted with N-acetylglucosamine. Gametocytes were treated with dihydroartemisinin, epoxomicin, methylene blue, primaquine, puromycin or chloroquine in 96-well plates and the pLDH activity was evaluated using a modified Makler protocol. Mosquito infectivity was measured by the standard membrane feeding assay. The IC50 value was extrapolated as the concentration that induced a 50% inhibition of gametocyte viability.; format: functional, organism-based
Plasmodium falciparum [2] = experiment: as §1, with “assay.” for “assay. The IC50 value was extrapolated as the concentration that induced a 50% inhibition of gametocyte viability.”; format: functional; set-up: concentration or dose not given beside the values

| Structure (SMILES) | IC50 (Plasmodium falciparum [1]) | Growth Inhibition (Plasmodium falciparum [2]) |
| --- | --- | --- |
| CN1CCN(c2ccc(Nc3c4ccccc4nc4ccccc34)cc2)CC1 | 732 nM | 62.7432% |
| O=C(Nc1ccc(Cl)c(Cl)c1)Nc1ccc(Cl)c(Cl)c1 |  | 10.3704% |
| COc1ccc(Nc2nc(N/N=C/c3ccc(O)cc3)nc(Nc3ccc([N+](=O)[O-])cc3)n2)cc1 |  | 24.1364% |
| CN(C)CCCNc1c2ccccc2nc2ccccc12 | 3140 nM | 9.2618% |
| COc1ccc(-c2cc3c(nn2)-c2ccccc2C3=O)cc1 | 5010 nM | 49.5345% |
| COc1ccc(C2c3ccc4ccccc4c3Oc3ncn(CCCN(C)C)c(=N)c32)cc1 (configuration not stated) | 696 nM | 88.163% |
| N=c1n(CCN2CCCCC2)c2ccccc2n1CC(=O)c1ccc(Cl)c(Cl)c1 |  | 13.8938% |
| Nc1nc(Nc2cccc(F)c2)nc2ccccc12 |  | 18.202% |
| COc1ccc(-c2nc(N3CCN(C(=O)C4CCCCC4)CC3)c3c4c(sc3n2)CCCC4)cc1 |  | -0.9006% |
| O=C(NC1CCN(Cc2ccccc2)CC1)c1cc2nc(-c3ccc(Cl)s3)cc(C(F)(F)F)n2n1 |  | 6.5116% |
| Cc1sc(NC(=O)c2ccccc2)c(C(c2cccs2)N2CCN(c3ccccc3)CC2)c1C (configuration not stated) |  | 0.692% |
| Cc1sc(NC(=O)c2ccco2)c(C(c2cccnc2)N2CCC(Cc3ccccc3)CC2)c1C (configuration not stated) |  | 4.6056% |
| COc1cc(C(=O)Nc2nc3c(cc4c5c(cccc53)CC4)s2)cc(OC)c1OC |  | 2.6754% |
| COc1ccc(CCN2C(=O)c3[nH]nc(-c4cc(Cl)c(C)cc4O)c3C2c2ccccc2F)cc1 (configuration not stated) |  | 16.338% |
| O=C(NNc1cc(N2CCCC2)nc(N2CCCC2)n1)c1ccccc1 |  | 2.419% |
| CC(C)(C)CC(C)(C)NCC(O)COc1ccc(Cl)cc1Cl (configuration not stated) | 5620 nM | 54.9615% |
| Cc1cccc(-n2ncc3c(O)nc(-n4nc(C)cc4NC(=O)c4cc5ccccc5o4)nc32)c1 | 1620 nM | 60.253% |
| COC(=O)c1ccc(Cl)c2c1C1C=CCC1C(c1cccc3ccccc13)N2 (configuration not stated) |  | -3.8852% |
| O=C(CCc1ccccc1)c1ccccc1OCC(O)CN1CCCCC1 (configuration not stated) |  | 24.7266% |
| Cc1ccc(Nc2nc(-c3ccccn3)cs2)cc1 | 1380 nM | 62.3104% |
| OC1=C2C(=Nc3ccccc3SC2c2ccccc2)c2ccccc21 (configuration not stated) |  | 34.196% |
| Cl.N=c1n(CCN2CCCCC2)c2ccccc2n1CC(O)c1cccc(Br)c1 (configuration not stated) | 3930 nM | 59.1366% |

| Structure (SMILES) | IC50 (Plasmodium falciparum [1]) | Growth Inhibition (Plasmodium falciparum [2]) |
| --- | --- | --- |
| COc1cc(C(=O)Nc2ccc(-c3nc4ccccc4[nH]3)cc2)cc(OC)c1OC |  | 13.7592% |
| CCOc1ccc(N2C(N)=NC(N)=NC2(C)C)cc1.Cl |  | -4.3826% |
| COc1cccc(Nc2nc(N)c3ccccc3n2)c1.Cl |  | 17.598% |
| COc1cccc(NC(=O)[C@H](C(C)C)n2c(=O)[nH]c3ccccc3c2=O)c1 | 2750 nM | 63.4258% |
| CN(C)CCCNCc1ccc(-c2ccc(F)c(Cl)c2)o1.Cl | 2210 nM | 63.9166% |
| O=C(CCl)NCCOc1ccc(Cl)cc1Cl |  | 8.2288% |
| Oc1ccc(-c2nc(-c3ccc4oc5ccc(-c6[nH]c(-c7ccc(O)cc7)nc6-c6ccccc6)cc5c4c3)c(-c3ccccc3)[nH]2)cc1 |  | 21.6376% |
| Cc1sc2ncnc(Sc3nc4ccccc4[nH]3)c2c1C | 2640 nM | 79.0368% |
| COc1ccc(C(=O)NC(c2ccc(Cl)cc2Cl)c2cc(Cl)c3cccnc3c2O)cc1 (configuration not stated) | 3810 nM | 50.4754% |
| CCOc1ccc(CN2CCN(CC(O)COc3ccc(OCC(O)CN4CCN(Cc5ccc(OCC)cc5)CC4)cc3)CC2)cc1 (configuration not stated) | 1340 nM | 89.2205% |
| O=C(NC(c1ccccc1)c1ccc2cccnc2c1O)c1ccccc1 (configuration not stated) | 2650 nM | 59.5194% |
| CCCCNc1nc(NC(C)(C)C)nc(NC(C)(C)C)n1 |  | 40.1594% |
| Cl.c1ccc2c(NCCCCCCNc3c4c(nc5ccccc35)CCCC4)c3c(nc2c1)CCCC3 | 2390 nM | 77.595% |
| CCN(CC)CCn1c(=N)n(CC(O)c2ccc(Cl)c(Cl)c2)c2ccccc21.Cl (configuration not stated) | 2080 nM | 75.2902% |
| O=C(NCCCN1CCC(N2CCCCC2)CC1)C1=Cc2cc(Br)ccc2OC1 | 1440 nM | 57.2548% |
| O=C(NC1CCN(Cc2ccccc2)CC1)c1cc(C(=O)NC2CCN(Cc3ccccc3)CC2)cc(C(=O)NC2CCN(Cc3ccccc3)CC2)c1 | 288 nM | 82.7495% |
| COc1ccc(CCn2c(=N)c(C(=O)NCc3cccnc3)cc3c(=O)n4cccc(C)c4nc32)cc1 |  | 4.0678% |
| CC(=O)c1sc(NC(=O)Nc2ccc(C)cc2C)nc1C |  | 12.9136% |
| Cn1c(C(=O)c2cccc3ccccc23)nc2ccccc21 |  | -3.612% |
| COc1ccc(Nc2cc(C)nc(NCc3ccccc3)n2)cc1 |  | 8.4962% |
| Oc1ccc2ccccc2c1CNc1nc2ccccc2[nH]1 |  | 8.4186% |
| O=C(Nc1ccc(-c2nc3ccccc3[nH]2)cc1)c1ccc(Cl)c(Cl)c1 |  | 11.2736% |

| Structure (SMILES) | IC50 (Plasmodium falciparum [1]) | Growth Inhibition (Plasmodium falciparum [2]) |
| --- | --- | --- |
| COc1ccc(C2NCCc3c2[nH]c2ccccc32)cc1CN1CCN(c2ccc(F)cc2)CC1.Cl (configuration not stated) | 3410 nM | 75.07% |
| O=C1c2ccc3c4c(ccc(c24)C(=O)N1CCCCO)C(=O)N(CCCCO)C3=O |  | 33.201% |
| O=C(Nc1ccc(-c2nc3cc(NC(=O)c4ccc(Cl)cc4)ccc3[nH]2)cc1)c1ccc(Cl)cc1 |  | 18.844% |
| OCCNc1nc(Nc2ccc(Cl)c(Cl)c2)nc2ccccc12 |  | 18.8816% |
| Nc1ccc(-c2nc3cc(Oc4ccc(Oc5ccc6[nH]c(-c7ccc(N)cc7)nc6c5)cc4)ccc3[nH]2)cc1 |  | 21.5644% |
| CCOC(=O)c1cnc2ccc(OC)cc2c1Nc1ccc(N2CCN(C)CC2)cc1 |  | 5.5888% |
| Cc1cc(N(C)C)nc(Nc2ccc(NC(=O)Nc3ccccc3)cc2)n1 |  | 16.1034% |
| Cl.Clc1cc(Br)ccc1-c1ccc(CNCC2CCNCC2)o1 | 407 nM | 86.2708% |
| Cc1ccc2cc3c(N)c4c(C)ccc(C)c4nc3nc2c1 | 2720 nM | 80.372% |
| COc1ccc(C(=O)C(CCC(CNC(C)(C)C)C(=O)c2ccc(OC)cc2)CNC(C)(C)C)cc1 (configuration not stated) | 3220 nM | 56.45% |
| CC(C)CCNCC(O)Cn1c2ccccc2c2ccccc21.Cl (configuration not stated) | 2830 nM | 62.6796% |
| COc1cc(C(=O)ON=C(N)Cc2cccc3ccccc23)cc(OC)c1OC | 4040 nM | 60.0732% |
| CN1C=C(c2ccc3ccccc3n2)C(c2c[nH]c3ccccc23)c2ccccc21 (configuration not stated) |  | 12.6514% |
| COc1ccccc1NC1=C(N2CCCCC2)C(=O)c2ccccc2C1=O | 236 nM | 50.0502% |
| Oc1c(C(Nc2ccccn2)c2cccc(Oc3ccccc3)c2)ccc2cccnc12 (configuration not stated) | 3890 nM | 50.44% |
| COc1cc(-c2nc(-c3ccccc3)c(-c3ccccc3)[nH]2)cc(OC)c1O |  | 13.9122% |
| Cc1ccc(Nc2nc(N)c3ccccc3n2)cc1Cl |  | 23.2734% |
| OC(CNC1CCCCC1)Cn1c2ccc(I)cc2c2cc(I)ccc21 (configuration not stated) | 758 nM | 78.0014% |
| Cc1cc(C)c2nc(N3CCC(C(=O)NCCCN4CCC(N5CCCCC5)CC4)CC3)sc2c1 | 1930 nM | 59.2216% |
| CCc1ccc(CNCC(O)c2ccccc2)cc1.Cl (configuration not stated) |  | 26.7% |
| COc1cccc(C(=O)NC(c2ccc(C)cc2)c2cc(Cl)c3cccnc3c2O)c1 (configuration not stated) | 3090 nM | 50.8652% |
| CC(C)OCc1cc(CN2CCN(c3cccc(Cl)c3)CC2)c(O)c2ncccc12 | 3280 nM | 56.857% |

| Structure (SMILES) | IC50 (Plasmodium falciparum [1]) | Growth Inhibition (Plasmodium falciparum [2]) |
| --- | --- | --- |
| CSc1ccccc1C(=O)Nc1nc(-c2ccccn2)cs1 | 4610 nM | 29.8315% |
| Br.CCn1c2c(c(=N)c3c1CCC3)CCCC2 |  | -4.7115% |
| CCCOCc1cc(CN2CCN(c3cccc(Cl)c3)CC2)c(O)c2ncccc12 | 3800 nM | 80.5% |
| COc1cc(CNCCc2ccc(Cl)cc2)cc(OC)c1O |  | 17.1102% |
| Cc1ccc2c(C)nc(Nc3nc(C)cc(-c4ccccc4)n3)nc2c1 |  | -3.9148% |
| CCOc1ccc(Nc2ccnc3cc(Cl)ccc23)cc1 |  | 2.6298% |
| Oc1c(CN2CCN(c3ccccc3F)CC2)cc(Br)c2cccnc12 | 1900 nM | 75.8386% |
| Oc1ccc(Br)cc1CN1CCN(Cc2ccc(Cl)cc2)CC1 |  | 44.4912% |
| CCCc1c(C)nc2ccc(Br)cc2c1O | 8900 nM | 51.0245% |
| CC1=C(CC(=O)c2cccc([N+](=O)[O-])c2)C(=O)c2ccccc2C1=O | 902 nM | 70.075% |
| Br.Cc1ccc(C)c(-c2csc(Nc3ccc(C)c(C)c3)n2)c1 |  | -6.2508% |
| CC1CC2=C(CC1CNCCCN(C)C)C(C)(C)CCC2 (configuration not stated) | 576 nM | 91.9455% |
| CN(C)c1ccc(N=Cc2ccc(N3CCOCC3)cc2)cc1 | 4160 nM | 78.9978% |
| CCOC(=O)c1cnc2ccc(OC)cc2c1NCc1ccccc1 |  | 11.9674% |
| CCCn1c(=N)c(C(=O)NC2CCCCC2)cc2c(=O)n3cccc(C)c3nc21 |  | 2.4486% |
| CC(C)(C)c1ccc(C2CC3=Nc4ccccc4N(C(=O)c4ccccc4Cl)C(c4ccc(F)cc4)C3=C(O)C2)cc1 (configuration not stated) |  | 12.8628% |
| CN1CCN(c2nc(Nc3ccc(O)cc3)nc3ccccc23)CC1.Cl |  | 11.7422% |
| Nc1ccn([C@@H]2O[C@H](CO)[C@@H](O)[C@H]2O)c(=O)n1 [CYTIDINE] |  | 13.5248% |
| O=C(Nc1cccc(C2=NCCN2)c1)Nc1cccc(C2=NCCN2)c1 [IMIDOCARB] |  | 24.1816% |
